Results from ChEMBL document CHEMBL1201862, “PubChem BioAssay data set” (2004).
The source made the active and inactive calls.

How the values were obtained:
[1] = Luminescence Cell-Based Dose Confirmation HTS to Identify Activators of 5'UTR Stem-Loop Driven Alpha-Synuclein mRNA Translation in H4 Neuroglioblastoma Cells. [Related pubchem assays: 1829 (Project Summary), 1814 (Primary HTS)]; assay type: functional
[2] = Luminescence Cell-Based Dose Response HTS to Identify Activators of Luciferase Translation or Activity in H4 […] Cells. [Related pubchem assays: 1829 (Project Summary), 1814 (Primary HTS)]; assay type: functional
BJ [3] = assay: BJ-TERT fibroblast viability loss – cell-based, RAS-independent, luminescence, dose response (AID 1933); assay type: functional; settings: Homo sapiens
H4 = assay: Luminescence Cell-Based Dose Response HTS to Identify Activators of 5'UTR Stem-Loop Driven Prion Protein mRNA Translation in H4 Neuroglioblastoma Cells. [Related pubchem assays: 1829 (Project Summary), 1814 (Primary HTS)]; assay type: functional; settings: Homo sapiens
BJ [4] = assay: cells; assay type: functional, cell-based; settings: Homo sapiens
BJ [5] = assay: BJ-TERT-LT-ST fibroblast viability loss – cell-based, RAS-independent, luminescence, dose response (AID 1935); assay type: functional; settings: Homo sapiens;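 also: BJ fibroblasts immortalized with TERT plus LT and ST oncogenes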
[6] = DRD fibroblast viability loss – cell-based, non-viral oncogenic, luminescence, dose response (AID 1934); assay type: functional; settings: Homo sapiens
[7] = Luminescence Cell-Based Dose Retest to Confirm Inhibitors of Cancer Stem Cells. [Related pubchem assays (depositor defined):AID2717, AID2721]; assay type: functional; settings: Homo sapiens
[8] = molecular target: Glutathione S-transferase omega-1 (Homo sapiens, UniProt P78417); assay: IC50 of human GSTO1 inhibition by gel ABPP – biochemical, SE-Rh probe, in-gel fluorescence, powder samples, late-stage follow-up (AID 463081); assay type: functional
Sequence of Glutathione S-transferase omega-1 (P78417 whole entry): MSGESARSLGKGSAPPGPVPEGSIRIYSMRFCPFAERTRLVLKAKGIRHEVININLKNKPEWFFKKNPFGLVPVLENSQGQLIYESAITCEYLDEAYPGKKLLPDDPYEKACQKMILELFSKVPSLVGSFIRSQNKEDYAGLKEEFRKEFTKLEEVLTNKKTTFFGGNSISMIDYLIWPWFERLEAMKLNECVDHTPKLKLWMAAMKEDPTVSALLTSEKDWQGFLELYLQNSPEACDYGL

[9] = molecular target: T1, Replicative DNA helicase DnaB (Mycobacterium tuberculosis, UniProt P9WMR3); assay: DnaB intein splicing inhibitors, dose response, biochemical, cell-free fluorescence (AID 449749); assay type: functional
T1 sequence (P9WMR3 whole entry): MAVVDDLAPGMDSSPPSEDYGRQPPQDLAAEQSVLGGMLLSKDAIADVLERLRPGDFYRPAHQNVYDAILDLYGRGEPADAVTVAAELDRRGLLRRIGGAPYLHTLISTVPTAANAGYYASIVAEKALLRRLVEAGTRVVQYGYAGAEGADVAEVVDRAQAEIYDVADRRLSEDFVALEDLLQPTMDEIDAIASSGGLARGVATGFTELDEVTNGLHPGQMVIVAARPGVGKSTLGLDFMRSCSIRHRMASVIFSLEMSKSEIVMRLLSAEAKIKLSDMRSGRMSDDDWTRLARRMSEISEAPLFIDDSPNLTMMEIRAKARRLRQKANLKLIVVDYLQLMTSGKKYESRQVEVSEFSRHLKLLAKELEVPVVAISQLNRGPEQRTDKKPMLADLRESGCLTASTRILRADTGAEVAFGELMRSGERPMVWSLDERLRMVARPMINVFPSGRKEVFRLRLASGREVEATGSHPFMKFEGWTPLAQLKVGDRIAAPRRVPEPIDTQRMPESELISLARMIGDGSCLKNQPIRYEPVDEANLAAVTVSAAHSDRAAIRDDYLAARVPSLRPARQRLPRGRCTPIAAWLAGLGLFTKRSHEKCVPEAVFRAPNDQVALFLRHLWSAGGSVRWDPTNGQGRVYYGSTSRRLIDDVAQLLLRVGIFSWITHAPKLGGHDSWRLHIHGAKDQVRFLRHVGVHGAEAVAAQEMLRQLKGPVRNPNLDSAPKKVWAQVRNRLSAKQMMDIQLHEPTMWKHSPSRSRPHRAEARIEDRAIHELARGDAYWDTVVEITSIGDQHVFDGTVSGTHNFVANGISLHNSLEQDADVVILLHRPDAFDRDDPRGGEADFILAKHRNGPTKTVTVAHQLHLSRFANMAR

BJ [10] = assay: growth inhibition of engineered Ras-driven BJ cells – cell-based, alamar blue fluorescence, cherrypicked samples, dose response (AID 2631); assay type: functional; settings: Homo sapiens;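 also: confirmatory dose-response assay in RAS-dependent BJ fibroblasts engineered with TERT, LT and ST, with cytotoxicity read by fluorescence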
Protein RecA = molecular target: T2, Protein RecA (Mycobacterium tuberculosis, UniProt P9WHJ3); assay: Fluorescence Cell-Free Homogeneous Dose Retest to Identify Inhibitors of RecA-Intein Splicing Activity. [Related pubchem assays (depositor defined):AID2097, AID2223, AID489010, AID492950]; assay type: functional
T2 sequence (P9WHJ3 whole entry): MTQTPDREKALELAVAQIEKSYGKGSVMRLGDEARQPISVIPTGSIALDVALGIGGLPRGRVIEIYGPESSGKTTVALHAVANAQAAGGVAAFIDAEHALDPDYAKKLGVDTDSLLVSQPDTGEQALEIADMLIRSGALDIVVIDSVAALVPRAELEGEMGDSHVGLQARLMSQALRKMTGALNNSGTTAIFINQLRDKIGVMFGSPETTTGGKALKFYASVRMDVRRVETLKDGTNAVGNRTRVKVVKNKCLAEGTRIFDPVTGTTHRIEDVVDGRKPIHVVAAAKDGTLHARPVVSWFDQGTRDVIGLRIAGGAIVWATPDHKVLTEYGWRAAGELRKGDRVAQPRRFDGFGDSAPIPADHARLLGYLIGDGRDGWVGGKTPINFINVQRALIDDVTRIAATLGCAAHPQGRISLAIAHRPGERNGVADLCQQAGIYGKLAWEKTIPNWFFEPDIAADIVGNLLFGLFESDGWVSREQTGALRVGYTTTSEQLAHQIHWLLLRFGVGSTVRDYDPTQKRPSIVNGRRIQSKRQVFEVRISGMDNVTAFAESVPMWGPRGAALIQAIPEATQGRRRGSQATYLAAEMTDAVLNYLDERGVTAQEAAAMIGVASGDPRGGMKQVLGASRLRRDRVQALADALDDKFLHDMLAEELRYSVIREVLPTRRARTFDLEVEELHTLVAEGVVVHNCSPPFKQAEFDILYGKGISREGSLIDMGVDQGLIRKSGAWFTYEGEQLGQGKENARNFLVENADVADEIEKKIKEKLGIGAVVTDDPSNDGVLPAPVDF

Paired box protein Pax-8 = Paired box protein Pax-8 (Homo sapiens, UniProt Q06710); assay: PAX8 transcriptional activity inhibition in RMG-I – RMG-I cells, luciferase, cherry-pick, dose response (AID 687027); assay type: functional, cell-based;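 also: luciferase reporter driven by Pax8 target thyroperoxidase promoter measured by SteadyGlo luminescence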
Sequence of Paired box protein Pax-8 (Q06710 whole entry): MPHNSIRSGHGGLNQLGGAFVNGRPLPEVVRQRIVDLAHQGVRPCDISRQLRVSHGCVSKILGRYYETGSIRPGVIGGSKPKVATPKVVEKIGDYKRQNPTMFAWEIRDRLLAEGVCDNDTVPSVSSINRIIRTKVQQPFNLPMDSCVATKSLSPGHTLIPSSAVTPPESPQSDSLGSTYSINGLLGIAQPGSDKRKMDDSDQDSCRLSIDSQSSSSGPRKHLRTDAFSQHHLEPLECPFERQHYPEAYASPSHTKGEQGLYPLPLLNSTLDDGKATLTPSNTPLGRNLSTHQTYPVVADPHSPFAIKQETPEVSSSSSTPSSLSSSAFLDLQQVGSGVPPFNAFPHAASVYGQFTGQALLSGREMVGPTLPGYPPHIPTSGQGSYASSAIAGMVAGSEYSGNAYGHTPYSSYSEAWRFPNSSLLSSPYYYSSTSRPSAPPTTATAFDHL

[11] = general cell-killing toxicity readout – plate reader, dry powder samples, cytotoxicity control for PAX8 inhibitor project, dose response (AID 743021); assay type: functional, cell-based
[12] = molecular target: DNA dC->dU-editing enzyme APOBEC-3A (Homo sapiens, UniProt P31941); assay: A3A deaminase inhibition for selectivity – biochemical, dose response (AID 504722); assay type: functional
Sequence of DNA dC->dU-editing enzyme APOBEC-3A (P31941 whole entry): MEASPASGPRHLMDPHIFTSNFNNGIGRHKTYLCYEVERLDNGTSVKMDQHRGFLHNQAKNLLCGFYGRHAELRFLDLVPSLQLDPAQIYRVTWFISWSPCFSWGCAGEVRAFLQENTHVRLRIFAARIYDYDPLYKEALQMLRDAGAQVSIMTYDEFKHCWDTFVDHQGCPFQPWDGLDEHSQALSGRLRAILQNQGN

[13] = molecular target: DNA dC->dU-editing enzyme APOBEC-3G (Homo sapiens, UniProt Q9HC16); assay: Dose Response confirmation of small molecule APOBEC3G DNA Deaminase Inhibitors via a fluorescence-based single-stranded DNA deaminase assay. [Related pubchem assays (depositor defined):AID493012, AID493028]; assay type: functional
Sequence of DNA dC->dU-editing enzyme APOBEC-3G (Q9HC16 whole entry): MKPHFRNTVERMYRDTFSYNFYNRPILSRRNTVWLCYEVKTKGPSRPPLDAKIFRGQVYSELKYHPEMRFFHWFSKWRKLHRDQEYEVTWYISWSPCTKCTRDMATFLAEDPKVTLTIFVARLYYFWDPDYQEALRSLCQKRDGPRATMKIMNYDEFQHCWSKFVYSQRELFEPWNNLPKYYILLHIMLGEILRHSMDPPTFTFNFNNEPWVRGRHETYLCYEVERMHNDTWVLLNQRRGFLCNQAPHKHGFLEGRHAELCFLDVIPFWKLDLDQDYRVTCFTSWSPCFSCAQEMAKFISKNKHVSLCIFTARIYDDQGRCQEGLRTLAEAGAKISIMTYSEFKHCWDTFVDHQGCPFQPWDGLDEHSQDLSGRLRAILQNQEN

[14] = NIH/3T3 cell viability loss – mouse embryonic fibroblasts, dry powder, set 2, cytotoxicity control, dose response (AID 493247); assay type: functional, cell-based; settings: Fibroblast
Trypanosoma cruzi = assay: anti-trypanosomal activity in host cells – cell-based, plate reader, dry powder, set 3, dose response (AID 493197); assay type: functional

O=C(NC1CCCCC1)C(c1cccnc1)N(C(=O)CCl)c1ccc(F)cc1 (stereo not drawn)
active: EC50 [2] 10.1 µM | EC50 (BJ [5]) 7.25 µM | EC50 [6] 2.48 µM | AC50 [7] 1.54 µM | IC50 [8] 0.054 µM | AC50 [9] 5.76 µM | EC50 (BJ [10]) 0.535 µM | EC50 (Protein RecA) 0.816 µM | AC50 (Paired box protein Pax-8) 1.43 µM | AC50 [11] 7.37 µM
inconclusive: EC50 (BJ [3]) 1.3 µM | EC50 (BJ [4]) 5.32 µM
> 120 µM (not active): EC50 [1] | EC50 (H4)

Cc1ccc(-n2c(-c3ccco3)n[nH]c2=S)cc1
inactive: IC50 [12] > 100 µM
active: IC50 [13] 4.57 µM

O=C(CCC(=O)Nc1ccccc1)N/N=C/c1ccc([N+](=O)[O-])o1
active: AC50 [14] 5.35 µM | AC50 (Trypanosoma cruzi) 0.125 µM
